From patent publication EP4512427A1, “ANTIBODY-DRUG CONJUGATES BASED ON MOLECULAR GLUE DEGRADERS AND USES THEREOF” (Mablink Bioscience, priority 2023, dated 2025)

What was measured:
[1] = system: BT-474; assay: In vitro cytotoxicity assay (MTT); assay type: cell-based, human; details: BT-474, 6 days incubation, MTT
Protocol: (§1) In vitro cytotoxicity of compounds of the disclosure was assessed on several cancerous human cell lines. Cells were plated in 96-well plates at an appropriate density depending on the cell line (between 1000 and 10 000 cells/well in 100µL of appropriate culture media) and incubated at 37°C for 24 hours. Serial dilutions of the tested compound previously dissolved in culture media (50µL) were added, and incubation was carried at 37°C out for 6 days. MTT (5mg/mL in PBS, 20µL, Sigma-Aldrich) was added into the wells, and incubation was continued for 1 to 4 hours at 37°C. Culture media was then carefully removed, and well content was homogeneously dissolved with acidified isopropanol. Absorbance values were measured on a microplate reader using a wavelength of 570 nm (with a reference wavelength of 690 nm). The IC50 concentration values compared to untreated control cells were determined using inhibition dose response curve fitting (GraphPad Prism 9). Exatecan mesylate (cat#HY-13631A) and CR8 (CAS# 294646-77-8; cat#HY-18340) were purchased from MedChemExpress (China).

[2] = system: JIMT-1; assay: In vitro cytotoxicity assay (MTT); assay type: cell-based, human; details: 6 days incubation
Protocol: as §1

[3] = system: MDA-MB-231; assay: In vitro cytotoxicity assay (MTT); assay type: cell-based, human; details: 6 days incubation
Protocol: as §1

[4] = system: MDA-MB-453; assay: In vitro cytotoxicity assay (MTT); assay type: cell-based, human; details: 6 days incubation
Protocol: as §1

[5] = system: NCI-N87; assay: In vitro cytotoxicity assay (MTT); assay type: cell-based, human; details: 6 days incubation
Protocol: as §1

[6] = system: SKBR-3; assay: In vitro cytotoxicity assay (MTT); assay type: cell-based, human; details: 6 days incubation
Protocol: as §1

[7] = system: HCT-116; assay: In vitro cytotoxicity assay (MTT); assay type: cell-based; details: Homo sapiens, 144 h, 6 days incubation
Protocol: as §1

[8] = system: OE-19; assay: In vitro cytotoxicity assay (MTT); assay type: cell-based; details: Homo sapiens, OE19, 144 h, 6 days incubation
Protocol: as §1

[9] = system: HT-29; assay: In vitro cytotoxicity assay (MTT); assay type: cell-based; details: Homo sapiens, 144 h, 6 days incubation
Protocol: as §1

[10] = system: BXPC3; assay: In vitro cytotoxicity assay (MTT); assay type: cell-based; details: Homo sapiens, BXPC-3, 144 h, 6 days incubation
Protocol: as §1

[11] = system: A549; assay: In vitro cytotoxicity assay (MTT); assay type: cell-based; details: Homo sapiens, 144 h, 6 days incubation
Protocol: as §1

[12] = system: MCF-7; assay: In vitro cytotoxicity assay (MTT); assay type: cell-based; details: Homo sapiens, MCF7, 144 h, 6 days incubation
Protocol: as §1

[13] = system: Caco-2; assay: In vitro cytotoxicity assay (MTT); assay type: cell-based; details: Homo sapiens, 144 h, 6 days incubation
Protocol: as §1

[14] = system: CycK; assay: CycK protein quantification by Western Blot; assay type: cell-based, human
Protocol: 1×10^6 JIMT-1 cells were plated in 3mL of DMEM/FBS 90:10 (v/v) in 6-well plates and incubated overnight. Cells were treated with the compound 2384 of the invention with or without the proteasome inhibitor MG-132 (MedChemExpress, Cat HY-13259) for 2h. Cells were harvested, and protein were extracted using complete RIPA buffer (RIPA buffer, 1 mM DTT, 1M NaF, 100 mM sodium orthovanadate, phosphatase inhibitor buffer and protease inhibitors) for 1 hour on ice. Lysate were centrifuged 15min at 12 000g at 4°C. and proteins were mixed with 4x Laemmli Sample Buffer (Bio-Rad), heated at 95 °C for 5 mins and separated by SDS PAGE (PROTEAN TGX Stain-Free Gels, Bio-Rad). Proteins were then transferred onto PVDF membrane (iBlot®2 PVDF stacks, Invitrogen) using the iBlot2 device (Invitrogen) and blocked with TBS buffer (Intercept® Blocking Buffer, LI-COR Biosciences). Primary antibodies were incubated overnight at 4°C and secondary antibodies (IRDye Infrared Dyes from LI-COR Biosciences) 1 hour at room temperature. Used primary antibody were: anti-CycK (cat#A301-939A, Bethyl Laboratories, dil. 1:1000) and anti-β-actin (cat#A5441, Sigma-Aldrich, dil. 1:5000). Membranes were scanned using a c500 Imaging System (Azure Biosystems) and densitometric quantification were performed using imaged software. Protein levels were normalized against β-actin.

[15] = system: cancerous human cell lines; assay: In vitro cytotoxicity assay (MTT), side-by-side comparisons over the cell line panel; assay type: cell-based; details: side-by-side comparison (Figures 1-3, Table 3), result in words
Protocol: as §1

[16] = system: JIMT-1 cells; assay: Cell cycle arrest assessment (propidium iodide); assay type: cell-based, human
Protocol: 1×10^6 JIMT-1 cells were plated in 3mL of DMEM/FBS 90:10 (v/v) in 6-well plates and incubated overnight. Cells were treated with the compound 2384 of the invention or with CR8 for 24h. Cells were then harvested and washed three times with PBS. Cells were suspended into 300µL of propidium iodide working solution (0.05mg/mL) and incubated for 45 minutes at 4°C in the dark. Analysis was performed using a BD Fortessa flow cytometer controlled by BD FACSDiva software (BD Biosciences) and data were analyzed using FlowJo software (BD Bioscience).

[17] = Homo sapiens, MDA-MB-231, 144 h
[18] = Homo sapiens, MDA-MB-453, 144 h

| Structure (SMILES) | IC50 ([1]; Homo sapiens, BT-474, 144 h) [nM] | IC50 ([2]; Homo sapiens, 144 h) [nM] | IC50 [3, 17] [nM] | IC50 [4, 18] [nM] | IC50 ([5]; Homo sapiens, NCI-N87, 144 h) [nM] | IC50 ([6]; Homo sapiens, SK-BR-3, 144 h) [nM] | IC50 [7] [nM] | IC50 [8] [nM] | IC50 [9] [nM] | IC50 [11] [nM] | IC50 [12] [nM] | IC50 [13] [nM] | further results |
| --- | --- | --- | --- | --- | --- | --- | --- | --- | --- | --- | --- | --- | --- |
| Brc1cnn2c(NCc3ccc(-c4ccccn4)cc3)nc(NC3CCNCC3)nc12 [Compound 2388, 8-bromo-N2-(piperidin-4-yl)-N4-(4-(pyridin-2-yl)benzyl)pyrazolo[1,5-a][1,3,5]triazine-2,4-diamine] | 1.64 | 0.64 | 0.76 | 1.27 | 1.4 | 1.68 | 1.66 | 3.77 | 0.23 | 0.65 | 5.4 | 4.46 | IC50 [10]: 1.97 nM |
| CC[C@H](CO)Nc1nc(NCc2ccc(-c3ccccn3)cc2)c2ncn(C(C)C)c2n1 [CR8, reference compound] | – | – | – | – | – | – | – | – | – | – | – | – | IC50 [1]: 18.4 nM; IC50 [2]: 25.2 nM; IC50 [3]: 10.4 nM; IC50 [4]: 40.3 nM; IC50 [5]: 62.2 nM; IC50 [6]: 30.6 nM; CycK degradation ([14]; 10nM, 2h treatment of JIMT-1 cells): no CycK was observed; in vitro cytotoxicity potency [15]: potencies in the high nanomolar range; cell cycle analysis ([16]; 24h at 50 nM): arrest in G2/M phase; cell cycle analysis ([16]; 24h at 2, 5, and 10 nM): no impact on cell cycle |
| CC(C)c1cnn2c(NCc3ccc(-c4ccccn4)cc3)nc(N[C@H]3CC[C@H](N)CC3)nc12 [Compound 2420, N2-((1r,4r)-4-aminocyclohexyl)-8-isopropyl-N4-(4-(pyridin-2-yl)benzyl)pyrazolo[1,5-a][1,3,5]triazine-2,4-diamine] | 3.41 | 0.61 | 0.7 | 2.73 | 4.93 | 3.25 | 4.4 | 6.91 | 1.74 | 1.99 | 7.78 | 56.1 | – |
| CN(C)C/C=C/C(=O)Nc1ccc(C(=O)N2CCC[C@@H](Nc3ncc(Cl)c(-c4c[nH]c5ccccc45)n3)C2)cc1 [THZ-531, reference compound] | – | – | – | – | – | – | – | – | – | – | – | – | CycK protein content ([14]; JIMT-1 cells, 1µM, 2h): no impact on CycK protein content |
| CC(C)c1cnn2c(NCc3ccc(-c4ccccn4)cc3)nc(NC3CCNCC3)nc12 [Compound 2428] | 3.73 | 0.92 | 2.31 | 3.11 | 4.5 | 1.94 | 5.31 | 7.84 | 0.83 | 2.22 | 9.12 | 24.2 | – |
